Test results published in US6432978B1, “SF2809-I,II,III,IV,V and VI substances exhibiting chymase-inhibiting activities” (Meiji Seika Kaisha, Ltd., priority 1998, dated 2002).

Key:
human chymase = target: T1, human chymase (Homo sapiens, UniProt P23946); assay: Determination of chymase-inhibiting activity (Test Example 1); type: biochemical; settings: activated human recombinant chymase; substrate succinyl-alanyl-histidyl-prolyl-phenylalanyl-para-nitroanilide; buffer pH 8.0; room temperature, 5 minutes; absorbance at 405 nm; read-out: 50% inhibitory concentrations (IC50) against the human chymase
T1 construct: made in house; host or cells: insect cells (Tn5) infected with recombinant baculovirus
T1 sequence (P23946 22-247): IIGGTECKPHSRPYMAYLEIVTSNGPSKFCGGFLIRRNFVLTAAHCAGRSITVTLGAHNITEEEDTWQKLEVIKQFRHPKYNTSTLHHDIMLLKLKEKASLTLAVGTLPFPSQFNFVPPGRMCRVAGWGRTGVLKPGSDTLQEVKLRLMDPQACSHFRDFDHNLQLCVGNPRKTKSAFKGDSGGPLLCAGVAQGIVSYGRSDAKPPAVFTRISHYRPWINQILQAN
Description: In this Example, the chymase-inhibiting activity of SF2809 substances was determined as described below.
A human recombinant chymase was prepared in accordance with the method of Urata et al's report (Urata et al., J. Biol. Chem., Vol. 266, p.17173, 1991). Thus, cultivation was made of insect cells (Tn5) which had been infected with recombinant baculovirus containing therein such cDNA that encodes the human chymase. The resulting culture of the insect cells was filtered and the resultant supernatant was treated with Heparin-sepharose (Pharmacia's product) to recover the chymase. The chymase so recovered was then purified. Then, the purified chymase was activated in accordance with the method of Murakami et al's report (Murakami et al, J. Biol. Chem., Vol. 270, p.2218, 1991), after which the activated chymase was purified with Heparin-sepharose to afford an activated type of human chymase.
To 50 μl of a buffer A (comprising 0.5˜3.0 M NaCl, 50 mM tris hydrochloric acid, pH 8.0) which contained 1˜5 ng of the active-type of human chymase as prepared in (1) above, there was added 2 μl of a solution in dimethylsulfoxide (DMSO) of an SF2809 substance as the test substance. Then, to the resulting mixture, there was added 50 μl of a buffer A which contained 0.5 mM of succinyl-alanyl-histidyl-prolyl-phenylalanyl-para-nitroanilide (Buckem's product) as a substrate. The resultant admixture was incubated at room temperature for 5 minutes. The change in the absorbance at 405 nm of the reaction solution was measured with passage of the incubation time, thereby to examine the chymase-inhibiting activity of the SF2809 substance under test.

[1] = Solubility (physicochemical properties); settings: in methanol, ethyl acetate, dimethylsulfoxide, chloroform, hexane and water; result in words

| IC50 (human chymase) [nM] | SMILES | Solubility [1] |
| --- | --- | --- |
| 7300 | CC(=O)NCCc1c(Cc2c(O)c3ccccc3n(C)c2=O)[nH]c2ccccc12 [SF2809-I substance] | Soluble in methanol, ethyl acetate and dimethylsulfoxide; sparingly soluble in chloroform; and insoluble in hexane and water |
| 41 | CC(=O)NCCc1c(C(c2ccc(O)cc2)c2c(O)c3ccccc3n(C)c2=O)[nH]c2ccccc12 (stereo not drawn) [SF2809-II substance] | Soluble in methanol, ethyl acetate and dimethylsulfoxide; sparingly soluble in chloroform; and insoluble in hexane and water |
| 2100 | Cn1c(=O)c(Cc2[nH]c3ccccc3c2CCO)c(O)c2ccccc21 [SF2809-III substance] | Soluble in methanol, ethyl acetate and dimethylsulfoxide; sparingly soluble in chloroform; and insoluble in hexane and water |
| 81 | Cn1c(=O)c(C(c2ccc(O)cc2)c2[nH]c3ccccc3c2CCO)c(O)c2ccccc21 (stereo not drawn) [SF2809-IV substance] | Soluble in methanol, ethyl acetate and dimethylsulfoxide; sparingly soluble in chloroform; and insoluble in hexane and water |
| 43 | CC(=O)NCCc1c(C(c2ccccc2)c2c(O)c3ccccc3n(C)c2=O)[nH]c2ccccc12 (stereo not drawn) [SF2809-V substance] | Soluble in methanol, ethyl acetate, dimethylsulfoxide and chloroform; and insoluble in hexane and water |
| 14 | Cn1c(=O)c(C(c2ccccc2)c2[nH]c3ccccc3c2CCO)c(O)c2ccccc21 (stereo not drawn) [SF2809-VI substance] | Soluble in methanol, ethyl acetate, dimethylsulfoxide and chloroform; and insoluble in hexane and water |
